# Data published in ChEMBL document CHEMBL1154763, “Antitrypanosomal activity of 1,2-dihydroquinolin-6-ols and their ester derivatives” (J Med Chem, 2010).
# pIC50: −log10 of the molar value. Calls of active or inactive are those of the source. No cut-off for these calls is given here.
# What was measured:
# [1] = test system: L6; assay: Cytotoxicity against rat L6 cells after 70 hrs by alamar blue assay; type: cell-based; conditions: L6, 70 h
# [2] = Selectivity index, ratio of IC50 for rat L6 cells to IC50 for bloodstream Trypanosoma brucei rhodesiense STIB 900; type: toxicity, cell-based; conditions: read-out: Ratio IC50
# [3] = test system: Trypanosoma brucei rhodesiense; assay: Antitrypanosomal activity against bloodstream Trypanosoma brucei rhodesiense STIB 900 after 70 hrs by alamar blue assay; type: functional, organism-based; conditions: STIB 900, 70 h
# [4] = test system: Mus musculus; assay: Toxicity in Trypanosoma brucei STIB795 infected in NMRI mouse African trypanosomiasis model assessed as overt signs of at 50 mg/kg, ip qd administered for 4 consecutive days from day 3 to 6 postinfection measured up to 30 days; conditions: in vivo, 720 h
# [5] = test system: Trypanosoma brucei brucei; assay: Antitrypanosomal activity against Trypanosoma brucei brucei STIB 795 infected in NMRI mouse African trypanosomiasis model assessed as parasite free mouse survival at 50 mg/kg, ip qd administered for 4 consecutive days from day 3 to 6 postinfection measured up to 30 days
smiles,measurement,setting,value
COc1cccc(COc2ccc3c(c2)C(C)=CC(C)(C)N3Cc2cccc(OC)c2)c1,pIC50,[1]; read-out: IC50,< 3.68
same,selectivity ratio,[2],> 3
same,pIC50,[3],4.20
CC(=O)Oc1ccc2c(c1)C(C)=CC(C)(C)N2Cc1cccc(Cl)c1,pIC50,[1]; read-out: IC50,4.54
same,selectivity ratio,[2],740
same,pIC50,[3],7.41
COc1cc(OC)cc(C(=O)Oc2ccc3c(c2)C(C)=CC(C)(C)N3Cc2ccc(C)cc2)c1,pIC50,[1]; read-out: IC50,< 3.70
same,selectivity ratio,[2],> 6000
same,pIC50,[3],7.48
CC1=CC(C)(C)N(Cc2ccccc2)c2ccc(OC(=O)C3CCCCC3)cc21,pIC50,[1]; read-out: IC50,< 3.64
same,selectivity ratio,[2],> 8200
same,pIC50,[3],7.55
CC(=O)Oc1ccc2c(c1)C(C)=CC(C)(C)N2Cc1cccc(C(F)(F)F)c1,pIC50,[1]; read-out: IC50,4.57
same,selectivity ratio,[2],660
same,pIC50,[3],7.39
CC(=O)Oc1ccc2c(c1)C(C)=CC(C)(C)N2Cc1ccc(C#N)cc1,pIC50,[1]; read-out: IC50,4.54
same,selectivity ratio,[2],110
same,pIC50,[3],6.59
COc1cc(COc2ccc3c(c2)C(C)=CC(C)(C)N3)cc(OC)c1,pIC50,[1]; read-out: IC50,4.17
same,selectivity ratio,[2],5
same,pIC50,[3],4.89
CC1=CC(C)(C)N(Cc2ccccc2)c2ccc(OC(=O)c3ccccc3)cc21,pIC50,[1]; read-out: IC50,< 3.62
same,selectivity ratio,[2],> 18000
same,pIC50,[3],7.89
CC1=CC(C)(C)Nc2ccc(OCCc3ccccc3)cc21,pIC50,[1]; read-out: IC50,4.08
same,selectivity ratio,[2],22
same,pIC50,[3],5.43
CC1=CC(C)(C)Nc2ccc(OC(=O)c3cccc(C(=O)Oc4ccc5c(c4)C(C)=CC(C)(C)N5)c3)cc21,pIC50,[1]; read-out: IC50,4.20
same,selectivity ratio,[2],> 7800
same,pIC50,[3],> 8.10
CC(=O)Oc1ccc2c(c1)C(C)=CC(C)(C)N2Cc1cccc(C#N)c1,pIC50,[1]; read-out: IC50,4.51
same,selectivity ratio,[2],170
same,Activity,[4],Non-toxic
same,Survival,[5]; route intraperitoneal,9.25 days
same,pIC50,[3],6.74
COc1cccc(COc2ccc3c(c2)C(C)=CC(C)(C)N3)c1,pIC50,[1]; read-out: IC50,4.21
same,selectivity ratio,[2],5
same,pIC50,[3],4.96
CC(=O)Oc1ccc2c(c1)C(C)=CC(C)(C)N2Cc1cccc(C)c1,pIC50,[1]; read-out: IC50,4.55
same,selectivity ratio,[2],82
same,pIC50,[3],6.47
COc1ccc(CN2c3ccc(OC(C)=O)cc3C(C)=CC2(C)C)cc1,pIC50,[1]; read-out: IC50,4.82
same,selectivity ratio,[2],310
same,pIC50,[3],7.32
COc1cc(OC)cc(C(=O)Oc2ccc3c(c2)C(C)=CC(C)(C)N3Cc2ccc(Cl)cc2)c1,pIC50,[1]; read-out: IC50,< 3.72
same,selectivity ratio,[2],> 3900
same,pIC50,[3],7.32
CC1=CC(C)(C)Nc2ccc(OC(=O)c3ccc4c(c3)OCO4)cc21,pIC50,[1]; read-out: IC50,4.54
same,selectivity ratio,[2],99
same,pIC50,[3],6.52
CC1=CC(C)(C)N(Cc2ccccc2)c2ccc(OC(=O)Cc3ccccc3)cc21,pIC50,[1]; read-out: IC50,3.80
same,selectivity ratio,[2],11000
same,pIC50,[3],7.82
CC(=O)Oc1ccc2c(c1)C(C)=CC(C)(C)N2C(C)=O,pIC50,[1]; read-out: IC50,3.80
same,selectivity ratio,[2],29
same,pIC50,[3],5.28
CC(=O)Oc1ccc2c(c1)C(C)=CC(C)(C)N2Cc1ccc(C(F)(F)F)cc1,pIC50,[1]; read-out: IC50,4.85
same,selectivity ratio,[2],39
same,pIC50,[3],6.44
CC1=CC(C)(C)Nc2ccc(O)cc21,pIC50,[1]; read-out: IC50,4.74
same,selectivity ratio,[2],23
same,pIC50,[3],6.11
CCCCCCCC(=O)Oc1ccc2c(c1)C(C)=CC(C)(C)N2Cc1ccccc1,pIC50,[1]; read-out: IC50,3.66
same,selectivity ratio,[2],13000
same,pIC50,[3],7.77
CC(=O)Oc1ccc2c(c1)C(C)=CC(C)(C)N2Cc1ccc(C)cc1,pIC50,[1]; read-out: IC50,4.68
same,selectivity ratio,[2],54
same,pIC50,[3],6.41
CC1=CC(C)(C)N(Cc2cccc(C(F)(F)F)c2)c2ccc(OCc3cccc(C(F)(F)F)c3)cc21,pIC50,[1]; read-out: IC50,< 3.74
same,selectivity ratio,[2],> 50
same,pIC50,[3],5.44
CC1=CC(C)(C)N(Cc2ccccn2)c2ccc(O)cc21,pIC50,[1]; read-out: IC50,4.74
same,selectivity ratio,[2],17
same,pIC50,[3],5.96
COc1cc(CN2c3ccc(OC(C)=O)cc3C(C)=CC2(C)C)cc(OC)c1,pIC50,[1]; read-out: IC50,4.60
same,selectivity ratio,[2],240
same,pIC50,[3],7.00
COc1cc(CN2c3ccc(OC(C)=O)cc3C=CC2(C)C)cc(OC)c1,pIC50,[1]; read-out: IC50,5.00
same,selectivity ratio,[2],50
same,pIC50,[3],6.70
O=C(Oc1ccc2ncccc2c1)c1ccc2c(c1)OCO2,pIC50,[1]; read-out: IC50,4.40
same,selectivity ratio,[2],0.5
same,pIC50,[3],4.10
CC1=CC(C)(C)N(Cc2ccc(Cl)cc2)c2ccc(O)cc21,pIC50,[1]; read-out: IC50,5.10
same,selectivity ratio,[2],130
same,pIC50,[3],7.21
CC1=CC(C)(C)N(Cc2ccc(C)cc2)c2ccc(O)cc21,pIC50,[1]; read-out: IC50,5.09
same,selectivity ratio,[2],140
same,pIC50,[3],7.24
CC1=CC(C)(C)N(Cc2ccccc2)c2ccc(O)cc21,pIC50,[1]; read-out: IC50,5.17
same,selectivity ratio,[2],970
same,pIC50,[3],8.15
COc1cc(CN2c3ccc(O)cc3C(C)=CC2(C)C)cc(OC)c1,pIC50,[1]; read-out: IC50,4.96
same,selectivity ratio,[2],83
same,pIC50,[3],6.85
CC(=O)Oc1ccc2c(c1)C(C)=CC(C)(C)N2Cc1ccc(Cl)cc1,pIC50,[1]; read-out: IC50,4.66
same,selectivity ratio,[2],120
same,pIC50,[3],6.74
CC(=O)Oc1ccc2c(c1)C(C)=CC(C)(C)N2C,pIC50,[1]; read-out: IC50,4.39
same,selectivity ratio,[2],29
same,pIC50,[3],5.85
CC1=CC(C)(C)N(Cc2ccncc2)c2ccc(O)cc21,pIC50,[1]; read-out: IC50,4.89
same,selectivity ratio,[2],39
same,pIC50,[3],6.47
CC(=O)Oc1ccc2c(c1)C(C)=CC(C)(C)N2Cc1ccc(Cl)c(Cl)c1,pIC50,[1]; read-out: IC50,4.55
same,selectivity ratio,[2],530
same,pIC50,[3],7.28
COc1cc([C@@H]2c3cc4c(cc3[C@H](O)[C@H]3COC(=O)[C@H]23)OCO4)cc(OC)c1OC [PODOFILOX],pIC50,[1],7.92
Nc1nc(N)nc(Nc2ccc([As]3SCC(CO)S3)cc2)n1 (centres undefined) [MELARSOPROL],pIC50,[1]; read-out: IC50,5.10
same,selectivity ratio,[2],1000
same,pIC50,[3],8.10
CC1(C)C=Cc2cc(O)ccc2N1Cc1ccccc1,pIC50,[1]; read-out: IC50,5.26
same,selectivity ratio,[2],42
same,pIC50,[3],6.89
COc1ccc(CN2c3ccc(O)cc3C(C)=CC2(C)C)cc1,pIC50,[1]; read-out: IC50,5.21
same,selectivity ratio,[2],37
same,pIC50,[3],6.77
CC1=CC(C)(C)N(Cc2ccccc2)c2ccc(OC(=O)C(C)(C)C)cc21,pIC50,[1]; read-out: IC50,3.77
same,selectivity ratio,[2],6000
same,pIC50,[3],7.55
COc1cccc(CN2c3ccc(OC(C)=O)cc3C(C)=CC2(C)C)c1,pIC50,[1]; read-out: IC50,4.54
same,selectivity ratio,[2],91
same,pIC50,[3],6.49
COc1cc(OC)cc(C(=O)Oc2ccc3c(c2)C(C)=CC(C)(C)N3Cc2ccccc2)c1,pIC50,[1]; read-out: IC50,4.62
same,selectivity ratio,[2],1000
same,pIC50,[3],7.64
CC1=CC(C)(C)Nc2ccc(OCc3ccc(C(F)(F)F)cc3)cc21,pIC50,[1]; read-out: IC50,4.32
same,selectivity ratio,[2],11
same,pIC50,[3],5.35
COc1ccc(COc2ccc3c(c2)C(C)=CC(C)(C)N3)cc1,pIC50,[1]; read-out: IC50,4.11
same,selectivity ratio,[2],15
same,pIC50,[3],5.28
CC1=CC(C)(C)Nc2ccc(OCc3ccccc3)cc21,pIC50,[1]; read-out: IC50,4.25
same,selectivity ratio,[2],14
same,pIC50,[3],5.39
COc1cc(OC)cc(C(=O)Oc2ccc3ncccc3c2)c1,pIC50,[1]; read-out: IC50,3.70
same,selectivity ratio,[2],2
same,pIC50,[3],4.05
CC1=CC(C)(C)Nc2ccc(OCc3cccc(C(F)(F)F)c3)cc21,pIC50,[1]; read-out: IC50,4.35
same,selectivity ratio,[2],5
same,pIC50,[3],5.06
COc1ccccc1COc1ccc2c(c1)C(C)=CC(C)(C)N2,pIC50,[1]; read-out: IC50,4.32
same,selectivity ratio,[2],9
same,pIC50,[3],5.28
CC(=O)Oc1ccc2c(c1)C(C)=CC(C)(C)N2Cc1ccc(C(C)(C)C)cc1,pIC50,[1]; read-out: IC50,5.05
same,selectivity ratio,[2],13
same,pIC50,[3],6.17
CC1=CC(C)(C)N(Cc2ccc(C(F)(F)F)cc2)c2ccc(OCc3ccc(C(F)(F)F)cc3)cc21,pIC50,[1]; read-out: IC50,< 3.74
same,selectivity ratio,[2],> 2
same,pIC50,[3],4.07
COc1cc(OC)cc(C(=O)Oc2ccc3c(c2)C(C)=CC(C)(C)N3)c1,pIC50,[1]; read-out: IC50,4.80
same,selectivity ratio,[2],300
same,Survival,[5],inactive
same,pIC50,[3],7.27
